The source of these data is patent US5714509A, “Inhibitors of bacterial sialidase and methods of making and using the same” (The University of Alabama, priority 1995, dated 1998).

For experiment [1], the system named is influenza virus sialidase. Particulars: cited from earlier work; for IC50: read-out: IC50 for influenza virus sialidase inhibition.
Experiment [2] concerns the target T1, bacterial sialidase (Micromonospora viridifaciens) (Micromonospora viridifaciens, UniProt Q02834).
T1 sequence (Q02834 38-647): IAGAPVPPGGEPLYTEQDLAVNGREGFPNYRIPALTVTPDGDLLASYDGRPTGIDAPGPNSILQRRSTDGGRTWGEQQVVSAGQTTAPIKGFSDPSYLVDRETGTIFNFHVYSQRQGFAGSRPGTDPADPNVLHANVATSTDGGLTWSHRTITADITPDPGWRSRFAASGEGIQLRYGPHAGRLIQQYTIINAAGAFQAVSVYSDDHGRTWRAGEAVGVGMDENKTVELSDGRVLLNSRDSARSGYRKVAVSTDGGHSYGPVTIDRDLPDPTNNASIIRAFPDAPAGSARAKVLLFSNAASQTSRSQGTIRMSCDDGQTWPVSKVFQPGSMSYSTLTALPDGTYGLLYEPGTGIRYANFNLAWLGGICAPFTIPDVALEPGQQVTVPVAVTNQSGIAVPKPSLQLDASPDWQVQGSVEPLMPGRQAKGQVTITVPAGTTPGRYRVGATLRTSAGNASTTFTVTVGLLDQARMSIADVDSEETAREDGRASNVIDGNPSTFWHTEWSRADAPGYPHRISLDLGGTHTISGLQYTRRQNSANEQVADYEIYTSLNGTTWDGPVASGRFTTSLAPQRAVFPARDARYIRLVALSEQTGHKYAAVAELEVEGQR
Kind of experiment: Inhibition of bacterial sialidase (Micromonospora viridifaciens), fluorescence assay with MUN. The experiment is classed as biochemical. Particulars: 10 mM inhibitor, 0.1 mM MUN, pH 6.0, 37° C., 15 minutes.

Experiment [3] concerns S. typhimurium sialidase. As to conditions: substrate of S. typhimurium sialidase; cited from earlier work.
Experiment [4] addresses S. typhimurium sialidase. Particulars: cited from earlier work.

Take `CC(=O)N[C@H]1[C@H]([C@H](O)[C@H](O)CO)OC(C(=O)O)=C[C@@H]1N=C(N)N` [4-guanidino-Neu5Ac2en]: in experiment [1] (influenza virus versus bacterial sialidases), the “inhibition selectivity for influenza virus sialidase versus bacterial sialidases” value was “inhibition selectivity of 4-guanidino-Neu5Ac2en for influenza virus sialidase versus bacterial sialidases”.

In the case of `CC(=O)Nc1c(O)cc(C(=O)O)cc1[N+](=O)[O-]` [HNBA, 4-acetylamino-3-hydroxyl-5-nitro-benzoic acid], the “inhibition of bacterial sialidase (in words)” value in experiment [2] is recorded as “inhibited bacterial sialidase with efficiencies similar to Neu5Ac2en”. Besides, the “inhibition of type A and B influenza virus sialidase (in words)” value in experiment [1] (both type A and B) is recorded as “potent inhibitors”. Besides, in experiment [1], the “inhibition of influenza virus sialidase (in words)” value is on record as “millimolar” and the IC50 is about 10 mM.

Regarding `CC(=O)NC1C(O)CC(Oc2ccc3c(C)cc(=O)oc3c2)(C(=O)O)OC1C(O)C(O)CO` [MUN, 4-methylumbelliferyl-a-D-N-acetylneuraminic acid], in the experiment with S. typhimurium sialidase [3], the Michaelis-Menten constant (Km) was 250 µM and the turnover number is on record as 2,700 sec^-1.

`CC(=O)N[C@H]1[C@H]([C@H](O)[C@H](O)CO)OC(C(=O)O)=C[C@@H]1O` [Neu5Ac2en]: on S. typhimurium sialidase [4], the inhibitory constant (Ki) is 380 µM. Also, the half-inhibitory concentration (IC50) in experiment [1] is about 10 mM.

With `CC(=O)N[C@H]1[C@H]([C@H](O)[C@H](O)CO)OC(O)(C(=O)O)C[C@@H]1O` (stereo partly shown) [Neu5Ac], the “inhibition by high levels of the cleavage product” value in the experiment with S. typhimurium sialidase [4] (high levels, compared to influenza virus sialidase) is recorded as “do not inhibit the bacterial sialidase”.

As a reminder, the IC50 is the concentration that inhibits the measured activity by half. A word on the Km: it is the substrate concentration at which the rate is half of its maximum. Broadly, the Ki is a dissociation constant, usually derived from enzyme kinetics or from competition with a known ligand.
